Results on 1 compound are retold here after PMC9637222, “Autoinducer-2 and bile salts induce c-di-GMP synthesis to repress the T3SS via a T3SS chaperone” (Nature Communications, 2022).

Several values for one entry are separate records, joined by “and”; a condition that tells them apart may be missing. Identical values can stand only once. Like-named read-outs stand apart in the source and are kept apart here.

One test relates to SipC-His6 / SicA-HA. The experiment in a line: Co-IP of SipC-His6 with SicA-HA in presence of c-di-GMP. The note with it: dose-dependent.
Another test deals with PcrH (WP_003113548) (Pseudomonas aeruginosa, UniProt Q9I325). The format is binding. The note with it: for Kd: ITC.
A further test addresses T1, IpgC (WP_000055835) (Shigella flexneri, UniProt P0A2U4).
T1 construct: His6 (N, cleaved yes); made in house; host or cells: E. coli BL21(DE3), pET-28a (pET28a-ipgC)
The format is binding, S. flexneri serotype 2a. The settings on record: for Kd: ITC.

A further test has as its target T2, SicA K27A (Salmonella typhimurium, UniProt P69066, K27A).
T2 construct: His6 (N, cleaved yes); made in house; host or cells: E. coli BL21(DE3), pET-28a (pET28a-sicAK27A)
The format is binding, S. Typhimurium.

The subject of another test is InvF-His6 / SicA-HA. The experiment in a line: Co-IP of InvF-His6 with SicA-HA in presence of nucleotides. The note with it: nucleotide added to lysate.
[1] abbreviates: range given for all 6 chaperones (PcrH, IpgC, SycD, CesD, BicA, VcrH), read-out: Kd.

T1 sequence (P0A2U4 whole entry): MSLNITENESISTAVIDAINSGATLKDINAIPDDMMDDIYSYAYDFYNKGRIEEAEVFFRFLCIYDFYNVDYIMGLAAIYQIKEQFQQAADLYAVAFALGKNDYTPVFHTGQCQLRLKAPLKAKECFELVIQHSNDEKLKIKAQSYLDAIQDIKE
Chain of PcrH (WP_003113548) (Q9I325 1-167): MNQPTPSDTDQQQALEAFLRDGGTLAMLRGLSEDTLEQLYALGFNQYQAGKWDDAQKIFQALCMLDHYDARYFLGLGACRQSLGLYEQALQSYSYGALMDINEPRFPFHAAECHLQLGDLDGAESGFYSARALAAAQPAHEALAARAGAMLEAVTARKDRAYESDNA
T2 sequence (P69066 whole entry K27A): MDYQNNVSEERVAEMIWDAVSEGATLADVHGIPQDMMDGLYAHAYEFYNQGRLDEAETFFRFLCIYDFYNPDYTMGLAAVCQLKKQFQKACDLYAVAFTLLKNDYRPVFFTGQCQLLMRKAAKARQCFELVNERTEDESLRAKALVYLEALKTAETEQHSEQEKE

Turning to `Nc1nc2c(ncn2C2OC3COP(=O)(O)OC4C(COP(=O)(O)OC3C2O)OC(n2cnc3c(=O)[nH]c(N)nc32)C4O)c(=O)[nH]1` (stereo not shown) [c-di-GMP, Cyclic di-GMP], the “Effect on co-IP of SipC-His6 with SicA-HA (in words)” value in the test with SipC-His6 / SicA-HA was “decreased”. In addition, the “n, c-di-GMP binding to PcrH” value on PcrH (WP_003113548) (ITC binding stoichiometry n, individual replicates, Supplementary Figure 22a) is 1.15 and 1.14 and 1.18. For the same compound, the Kd at PcrH (WP_003113548) (individual replicates, Supplementary Figure 22a, read-out: Kd, c-di-GMP binding to PcrH) is 130 nM and 190 nM; at PcrH (WP_003113548) (setting [1]), 150 to 220 nM; at IpgC (WP_000055835) (individual replicates, Supplementary Figure 22b, read-out: Kd, c-di-GMP binding to IpgC), 200 nM and 250 nM and 220 nM; on IpgC (WP_000055835) (setting [1]) it was 150 to 220 nM; at SicA K27A (binding to SicA K27A), 41 µM and 33 µM and 39 µM. Further, the “n, c-di-GMP binding to IpgC” value on IpgC (WP_000055835) (ITC binding stoichiometry n, individual replicates, Supplementary Figure 22b) was 1.23 and 1.10 and 1.13. Also, the “n, c-di-GMP binding to SicAK27A” value on SicA K27A (ITC binding stoichiometry n, individual replicates, Supplementary Figure 17a) was 1.03 and 0.93 and 0.96. Further, the “Effect on co-IP of InvF-His6 with SicA-HA (in words)” value with InvF-His6 / SicA-HA is recorded as “impaired”.
